Patent US20100016335A1, “NOVEL AMINOPYRIDINE DERIVATIVES HAVING AURORA A SELECTIVE INHIBITORY ACTION” (priority 2006, published 2010)
Where a name gives a salt, the structure may show the parent alone.

What was measured:
[1] = tested on: Human cervical cancer cells (HeLa S3); assay: Effect by combined use of drugs in cells (docetaxel), WST-8 method; format: cell-based; settings: HeLa S3, three days; for inhibition at 0.3 µM / inhibition at 1 µM / inhibition at 0.1 µM: Homo sapiens, HeLa S3, 72 h, read-out: Cell growth inhibitory effect by sole administration of the compound of Example (%); for inhibition at 0.3 µM: compound 0.3 μM alone; for inhibition at 1 µM: compound 1.0 μM alone; for inhibition at 0.1 µM: compound 0.1 μM alone
Procedure: Fetal calf serum (FCS) was purchased from Moregate Biotech, DMEM medium from Invitrogen Corp., docetaxel (tradename: Taxere) from Sigma-Aldrich, Inc., and WST-8 from Kishida Chemical Co., Ltd.
(§1) Human cervical cancer cells (HeLa S3) were obtained from the American Type Culture Collection (ATCC).
Cells were suspended in a DMEM medium containing 10% FCS, and the cell suspension was dispensed to two 96-well plastic plates at a rate of 750 cells/100 microliters per well. The plates were incubated overnight in 5% CO2-95% air at 37° C. A drug was subjected to graded dilution in dimethylsulfoxide and further diluted with DMSO or with a DMEM medium containing 10% FCS and also containing 0.6 nM docetaxel. Then, the dilutions were each dispensed to one of the plates on which cells had been disseminated in advance, at a rate of 100 microliters per well. The final concentration of docetaxel at this stage was 0.3 nM. Also, the concentrations in the case of sole administration of the compound according to the invention were 0.003, 0.01, 0.03, 0.1, 0.3, 1, 3 and 10 μM. The plates were incubated for further three days in 5% CO2-95% air at 37° C. Cell growth after incubation was measured by the WST-8 method (H. Tominaga, et al., Anal. Commun., 36, 47-50 (1999)). Here, the WST-8 method refers to a method in which 20 microliters of a WST-8 reagent solution is added to each well, incubation is conducted at 37° C. for 60 minutes, the plate is stirred, and the amount of formazan produced is measured by a colorimetric method to determine the inhibitory rate of the drug. The growth inhibitory effects of docetaxel and of the compound according to the invention were determined, with the value obtained in sole treatment of DMSO being defined as 0%.

[2] = tested on: Human cervical cancer cells (HeLa S3); assay: Cell growth inhibitory effect, WST-8 method; format: cell-based; settings: Homo sapiens, 72 h; HeLa S3, three days incubation; read-out: Cell growth inhibitory effect (HeLaS3) (IC50)
Procedure: Fetal calf serum (FCS) was purchased from Moregate Biotech, and DMEM medium was purchased from Invitrogen Corp. WST-8 was purchased from Kishida Chemical Co., Ltd.
as §1
Cells were suspended in a DMEM medium containing 10% FCS, and the cell suspension was dispensed to a 96-well plastic plate at a rate of 750 cells/100 microliters per well. The plate was incubated overnight in 5% CO2-95% air at 37° C. A drug was subjected to graded dilution in dimethylsulfoxide and further diluted with a DMEM medium containing 10% FCS. Then, the dilution was dispensed to the plate on which cells had been disseminated in advance, at a rate of 100 microliters per well. The plate was incubated for further three days in 5% CO2-95% air at 37° C. Cell growth after incubation was measured by the WST-8 method (H. Tominaga, et al., Anal. Commun., 36, 47-50 (1999)). Here, the WST-8 method refers to a method in which 20 microliters of a WST-8 reagent solution is added to each well, incubation is conducted at 37° C. for 60 minutes, the plate is stirred, and the amount of formazan produced is measured by a […] method to determine the inhibitory rate of the drug.

human Aurora A = target: T1, human Aurora A (Homo sapiens, UniProt O14965); assay: Aurora A inhibitory activity (IMAP fluorescence polarization phosphorylation assay); format: biochemical; settings: 20 μM ATP, 30° C., 120 minutes
T1 construct: His (N); made in house; host or cells: Escherichia coli BL21-CodonPlus(DE3)-RIL
T1 sequence (O14965 1-403): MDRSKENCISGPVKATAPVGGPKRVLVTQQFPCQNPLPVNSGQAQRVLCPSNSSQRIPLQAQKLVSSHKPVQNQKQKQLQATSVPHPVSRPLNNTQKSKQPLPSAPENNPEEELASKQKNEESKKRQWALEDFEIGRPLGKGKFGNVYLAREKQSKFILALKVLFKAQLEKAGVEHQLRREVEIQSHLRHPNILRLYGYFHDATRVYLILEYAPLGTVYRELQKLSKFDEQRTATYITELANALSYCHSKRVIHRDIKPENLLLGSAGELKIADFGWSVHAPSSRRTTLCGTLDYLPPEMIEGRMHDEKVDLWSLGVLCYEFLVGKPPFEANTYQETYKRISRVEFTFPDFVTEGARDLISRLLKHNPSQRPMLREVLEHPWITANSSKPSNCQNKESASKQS
Excerpt: cDNA of N-terminal His-tagged human Aurora A was integrated into an expression vector, which was then highly expressed in Escherichia coli BL21-CodonPlus(DE3)-RIL cells. The Escherichia coli was harvested and lysed, and then the His-tagged human Aurora A protein was applied onto a nickel chelate column and eluted from the column with imidazole. The active fractions were desalted with a desalting column to give a purified enzyme.
For the phosphorylation reaction, the method by Upstate, Inc. [Kinase Profiler™ Assay Protocols] was referred to, and phosphorylation of the substrate was detected using IMAP® technology (Molecular Devices, Co. Ltd.) (Gaudet E W. et. al, J. Biomol. Screen, 8, 164-175 (2003)). Concretely, the phosphorylation reaction and the detection were carried out as follows:
The phosphorylation reaction was conducted using 384 well plate, and the reaction volume was 10 μl/well. The reaction buffer is comprised of 50 mM Tris-chloride buffer (pH 7.4), 15 mM magnesium acetate, and 0.2 mM ethylenediamine-N,N,N′,N′-tetraacetic acid (EDTA). Thereto, the purified Aurora A protein, 100 nM of the peptide substrate, and 20 μM of adenosine 5′-triphosphate (ATP) were added, and then the reaction was carried out at 30° C. for 120 minutes.
Thereafter, in order to terminate and detect the reaction, 30 μl of the IMAP (registered trademark) binding reagent (IMAP Progressive Binding Reagent, R7284) that had been diluted (1:400) in the 1×IMAP binding buffer A (IMAP Progressive Binding Buffer A, 5× stock, R7282) was added to each well. The solution stood still for 60 minutes in the dark, and then fluorescence polarization was measured using a high-end microplate reader (excitation wavelength: 485 nm; emission wavelength: 520 nm).
(§2) The compound to be tested was added to the reaction system such that a dilution series of the compound in dimethylsulfoxide (DMSO) was prepared, and then 0.5 μL of this solution was added for the testing to each well. Each control well was provided by adding 0.5 μL of DMSO to the well in place of the DMSO solution containing the compound to be tested.

[3] = target: T2, GST-tagged human Aurora B(AurB)/His-tagged human INCENP complex proteins (Homo sapiens, UniProt Q96GD4); assay: Aurora B inhibitory activity (Method A, IMAP assay kit); format: biochemical; settings: 40 μM ATP, 25° C., 45 minutes
T2 construct: GST; purchased Carna Biosciences, Inc
Procedure: An assay development kit for IMAP (registered trademark) (Aurora B), purchased from Carna Biosciences, Inc., was used for phosphorylation reaction, and the phosphorylation of a substrate was detected using the IMAP technology. […] Using the same, the phosphorylation reaction was conducted in accordance with a partially revised protocol attached to the kit, and then the phosphorylation of the substrate was detected using the IMAP technology.
For the phosphorylation reaction, 384 well plate was used, and the reaction volume was 10 μl/well. The composition of the reaction buffer (assay buffer) is comprised of 20 mM of HEPES buffer (pH 7.4), 0.01% Tween-20, and 2 mM of dithiothreitol (DTT). Thereto, AurB/INCENP complex protein, 100 nM of the substrate, and 40 μM of ATP, and 1 mM of magnesium salt were added, and then the reaction was conducted at 25° C. for 45 minutes. Thereafter, in order to terminate and detect the reaction, 30 μl of the IMAP (registered trademark) binding reagent (IMAP Progressive Binding Reagent, R7284) that had been diluted (1:400) in the 1× IMAP binding buffer A (IMAP Progressive Binding Buffer A, 5× stock, R7282) was added to each well.
as §2, with “DMSO” for “dimethylsulfoxide (DMSO)”

[4] = compound 0.3 μM + docetaxel 0.3 nM
[5] = compound 1.0 μM + docetaxel 0.3 nM
[6] = compound 0.1 μM + docetaxel 0.3 nM

T2 sequence (Q96GD4 whole entry): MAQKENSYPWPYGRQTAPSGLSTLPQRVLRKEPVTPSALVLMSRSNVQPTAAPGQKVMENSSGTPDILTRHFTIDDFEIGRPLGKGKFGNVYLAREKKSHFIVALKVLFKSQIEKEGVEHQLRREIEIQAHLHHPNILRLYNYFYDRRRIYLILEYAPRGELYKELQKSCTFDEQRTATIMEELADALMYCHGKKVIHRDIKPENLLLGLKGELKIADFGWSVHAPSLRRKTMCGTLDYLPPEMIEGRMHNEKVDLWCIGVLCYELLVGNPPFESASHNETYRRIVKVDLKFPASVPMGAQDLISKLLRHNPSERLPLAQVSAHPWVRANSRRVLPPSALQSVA
T2 sequence (Q9NQS7 803-916 partner limits assumed): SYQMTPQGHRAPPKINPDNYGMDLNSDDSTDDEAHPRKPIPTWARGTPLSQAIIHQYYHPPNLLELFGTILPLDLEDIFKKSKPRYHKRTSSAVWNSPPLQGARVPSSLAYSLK

Row | SMILES | IC50 [2] [nM] | IC50 (human Aurora A) [nM] | IC50 [3] [nM] | inhibition at 0.3 µM [1] [%] | inhibition at 1 µM [1] [%] | Cell growth inhibitory effect by combined administration of docetaxel and the compound of Example (%) [1, 4] [%] | Cell growth inhibitory effect by combined administration of docetaxel and the compound of Example (%) [1, 5] [%] | inhibition at 0.1 µM [1] [%] | Cell growth inhibitory effect by combined administration of docetaxel and the compound of Example (%) [1, 6] [%]
1 | Cl.O=C(O)[C@]1(Cc2cccc(Nc3nccs3)n2)CC[C@@H](Oc2cccc(C(F)(F)F)c2F)CC1 [Example 4, trans-4-(2-fluoro-3-(trifluoromethyl)phenoxy)-1-((6-(1,3-thiazol-2-ylamino)pyridin-2-yl)methyl)cyclohexanecarboxylic acid hydrochloride] | 830 | 0.11 | 32 | 22.9 | 52.9 | 88.6 | 93.8 |  | 
2 | NC(=O)[C@]1(Cc2cncc(Nc3cc[nH]n3)n2)CC[C@@H](Oc2cccc(Cl)c2F)CC1 [Example 15, trans-4-(3-chloro-2-fluorophenoxy)-1-((6-(1H-pyrazol-3-ylamino)pyrazin-2-yl)methyl)cyclohexanecarboxamide] | 1760 | 2 | 870 | 17 | 42.4 | 76.4 | 90.8 |  | 
3 | NC(=O)[C@]1(Cc2cccc(Nc3nccs3)n2)CC[C@@H](Oc2cccc(Cl)c2F)CC1 [Example 8, trans-4-(3-chloro-2-fluorophenoxy)-1-((6-(1,3-thiazol-2-ylamino)pyridin-2-yl)methyl)cyclohexanecarboxamide] | 1260 | 0.54 | 150 | 12.2 | 49 | 84.6 | 95.0 |  | 

The next lines start with results.

Row | IC50 [2] [nM] | IC50 (human Aurora A) [nM] | IC50 [3] [nM] | SMILES | inhibition at 0.3 µM [1] [%] | inhibition at 1 µM [1] [%] | Cell growth inhibitory effect by combined administration of docetaxel and the compound of Example (%) [1, 4] [%] | Cell growth inhibitory effect by combined administration of docetaxel and the compound of Example (%) [1, 5] [%] | inhibition at 0.1 µM [1] [%] | Cell growth inhibitory effect by combined administration of docetaxel and the compound of Example (%) [1, 6] [%]
4 | 1130 | 0.43 | 370 | O=c1[nH]nc([C@]2(Cc3cccc(Nc4cc[nH]n4)n3)CC[C@@H](S(=O)(=O)c3cccc(Cl)c3Cl)CC2)o1 [Example 36, 5-(trans-4-((2,3-dichlorophenyl)sulfonyl)-1-((6-(1H-pyrazol-3-ylamino)pyridin-2-yl)methyl)cyclohexyl)-1,3,4-oxadiazol-2(3H)-one trifluoroacetate] | 32 |  | 88.9 |  | 2.6 | 76.8
5 | 2220 | 0.13 | 210 | O=C(O)[C@]1(Cc2cccc(Nc3cc[nH]n3)n2)CC[C@@H](Sc2cccc(Cl)c2Cl)CC1 [Example 33, trans-4-((2,3-dichlorophenyl)thio)-1-((6-(1H-pyrazol-3-ylamino)pyridin-2-yl)methyl)cyclohexanecarboxylic acid trifluoroacetate] | 0.3 | 23.4 | 75.5 | 91.3 |  | 
6 | 870 | 0.47 | 690 | O=c1[nH]nc([C@]2(Cc3cccc(Nc4cc[nH]n4)n3)CC[C@@H](Sc3cccc(Cl)c3Cl)CC2)o1 [Example 34, 5-(trans-4-((2,3-dichlorophenyl)thio)-1-((6-(1H-pyrazol-3-ylamino)pyridin-2-yl)methyl)cyclohexyl)-1,3,4-oxadiazol-2(3H)-one trifluoroacetate] | 40.8 |  | 93.9 |  | 3.9 | 83.8
7 | 3300 | 1.4 | 800 | Cn1nc([C@]2(Cc3cccc(Nc4cc[nH]n4)n3)CC[C@@H](Oc3cccc(Cl)c3F)CC2)oc1=O [Example 26, 5-(trans-4-(3-chloro-2-fluorophenoxy)-1-((6-(1H-pyrazol-3-ylamino)pyridin-2-yl)methyl)cyclohexyl)-3-methyl-1,3,4-oxadiazol-2(3H)-one] | 11.8 | 18.2 | 67.3 | 88.5 |  | 
